Reference: ChEMBL document CHEMBL1201862, “PubChem BioAssay data set” (2004)
The source made the active and inactive calls.

Columns and labels:
[1] = molecular target: Induced myeloid leukemia cell differentiation protein Mcl-1 (Homo sapiens, UniProt Q07820); assay type: functional
[2] = molecular target: Nonstructural protein 1 (Influenza A virus, UniProt Q194T2); assay type: functional, Influenza A virus (A/California/07/2009(H1N1))
[3] = molecular target: T1, Replicative DNA helicase DnaB (Mycobacterium tuberculosis, UniProt P9WMR3); test: DnaB intein splicing inhibitors, dose response, biochemical, cell-free fluorescence (AID 449749); assay type: functional
T1 sequence (P9WMR3 whole entry): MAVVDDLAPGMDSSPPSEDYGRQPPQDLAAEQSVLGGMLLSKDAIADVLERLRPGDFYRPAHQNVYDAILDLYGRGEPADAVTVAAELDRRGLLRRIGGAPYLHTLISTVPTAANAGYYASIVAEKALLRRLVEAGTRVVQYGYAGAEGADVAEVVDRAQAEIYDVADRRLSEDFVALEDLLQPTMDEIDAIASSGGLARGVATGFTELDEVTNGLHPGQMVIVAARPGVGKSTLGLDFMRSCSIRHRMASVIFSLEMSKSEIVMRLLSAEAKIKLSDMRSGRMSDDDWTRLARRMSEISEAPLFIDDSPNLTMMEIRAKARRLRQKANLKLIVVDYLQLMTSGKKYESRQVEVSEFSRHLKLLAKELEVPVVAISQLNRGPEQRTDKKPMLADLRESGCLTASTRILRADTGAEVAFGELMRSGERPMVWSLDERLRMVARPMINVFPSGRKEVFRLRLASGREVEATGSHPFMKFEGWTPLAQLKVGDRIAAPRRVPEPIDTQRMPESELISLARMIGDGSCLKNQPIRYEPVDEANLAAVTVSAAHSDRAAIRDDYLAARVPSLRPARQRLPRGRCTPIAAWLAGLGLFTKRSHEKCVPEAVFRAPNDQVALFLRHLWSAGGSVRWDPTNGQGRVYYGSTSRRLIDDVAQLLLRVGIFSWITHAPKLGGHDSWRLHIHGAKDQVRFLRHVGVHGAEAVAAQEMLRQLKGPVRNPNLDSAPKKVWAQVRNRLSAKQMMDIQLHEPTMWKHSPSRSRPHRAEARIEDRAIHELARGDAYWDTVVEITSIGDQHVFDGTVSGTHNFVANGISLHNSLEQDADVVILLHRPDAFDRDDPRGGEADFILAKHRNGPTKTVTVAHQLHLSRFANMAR

[4] = molecular target: T2, Protein RecA (Mycobacterium tuberculosis, UniProt P9WHJ3); test: Fluorescence Cell-Free Homogeneous Dose Retest to Identify Inhibitors of RecA-Intein Splicing Activity. [Related pubchem assays (depositor defined):AID2097, AID2223, AID489010, AID492950]; assay type: functional
T2 sequence (P9WHJ3 whole entry): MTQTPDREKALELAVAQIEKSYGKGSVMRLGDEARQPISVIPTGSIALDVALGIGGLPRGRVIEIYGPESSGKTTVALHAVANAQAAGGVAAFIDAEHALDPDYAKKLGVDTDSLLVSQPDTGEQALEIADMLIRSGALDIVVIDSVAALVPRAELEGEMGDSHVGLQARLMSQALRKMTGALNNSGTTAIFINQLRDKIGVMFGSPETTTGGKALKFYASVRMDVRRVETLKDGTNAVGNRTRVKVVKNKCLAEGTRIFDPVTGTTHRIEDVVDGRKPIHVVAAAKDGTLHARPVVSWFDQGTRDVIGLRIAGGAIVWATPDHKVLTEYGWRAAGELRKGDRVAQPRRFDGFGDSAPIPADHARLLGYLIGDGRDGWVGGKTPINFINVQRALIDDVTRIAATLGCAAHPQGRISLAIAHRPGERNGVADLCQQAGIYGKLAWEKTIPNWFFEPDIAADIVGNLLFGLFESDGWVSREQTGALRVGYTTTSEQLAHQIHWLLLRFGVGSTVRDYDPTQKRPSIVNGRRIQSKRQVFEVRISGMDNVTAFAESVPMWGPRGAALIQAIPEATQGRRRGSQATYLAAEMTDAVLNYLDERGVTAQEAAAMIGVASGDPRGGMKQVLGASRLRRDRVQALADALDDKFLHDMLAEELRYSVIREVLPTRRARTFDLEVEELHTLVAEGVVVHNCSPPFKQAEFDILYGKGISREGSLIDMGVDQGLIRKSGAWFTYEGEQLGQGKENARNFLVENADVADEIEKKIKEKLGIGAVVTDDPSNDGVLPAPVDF

[5] = microbe, parasite or virus in culture; assay type: functional; conditions: Mycobacterium tuberculosis
[6] = THP-1 cell cytotoxicity, dose response, cytotoxicity control for non-replicating M. tuberculosis project (AID 489025); assay type: functional
[7] = Luminescence Cell-Based Dose Retest to Confirm Inhibitors of Cancer Stem Cells. [Related pubchem assays (depositor defined):AID2717, AID2721]; assay type: functional; conditions: Homo sapiens
[8] = Vero E6 cell cytotoxicity, dose response, cytotoxicity control for non-replicating M. tuberculosis project, secondary assay (AID 492998); assay type: functional, VeroE6; conditions: Vero C1008
[9] = molecular target: T3, Microphthalmia-associated transcription factor (Homo sapiens, UniProt O75030); test: TRPM1 promoter luciferase signal decrease, dose response, MITF inhibitor project, cell-based, SK-MEL-5, cherry-picked, set 3 (AID 493073); assay type: functional
T3 sequence (O75030 whole entry): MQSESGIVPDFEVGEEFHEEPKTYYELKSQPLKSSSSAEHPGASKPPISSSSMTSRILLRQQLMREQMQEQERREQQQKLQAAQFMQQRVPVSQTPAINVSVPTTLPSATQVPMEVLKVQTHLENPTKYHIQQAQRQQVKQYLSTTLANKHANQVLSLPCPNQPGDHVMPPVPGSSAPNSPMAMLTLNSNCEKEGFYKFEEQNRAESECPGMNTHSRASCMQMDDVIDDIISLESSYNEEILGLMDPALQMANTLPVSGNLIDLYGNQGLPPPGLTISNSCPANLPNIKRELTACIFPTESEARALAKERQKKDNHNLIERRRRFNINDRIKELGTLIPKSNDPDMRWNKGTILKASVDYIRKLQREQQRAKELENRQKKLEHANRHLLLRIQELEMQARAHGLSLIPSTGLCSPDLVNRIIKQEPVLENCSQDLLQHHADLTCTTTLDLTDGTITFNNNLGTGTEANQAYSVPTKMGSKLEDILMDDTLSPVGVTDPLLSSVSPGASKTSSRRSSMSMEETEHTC

[10] = cells; assay type: functional
[11] = molecular target: T4, Coagulation factor XII (Homo sapiens, UniProt P00748); assay type: functional;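 also: activated factor XIIa alpha cleaving a fluorogenic AMC peptide substrate; inhibitor potency from loss of enzyme activity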
T4 sequence (P00748 whole entry): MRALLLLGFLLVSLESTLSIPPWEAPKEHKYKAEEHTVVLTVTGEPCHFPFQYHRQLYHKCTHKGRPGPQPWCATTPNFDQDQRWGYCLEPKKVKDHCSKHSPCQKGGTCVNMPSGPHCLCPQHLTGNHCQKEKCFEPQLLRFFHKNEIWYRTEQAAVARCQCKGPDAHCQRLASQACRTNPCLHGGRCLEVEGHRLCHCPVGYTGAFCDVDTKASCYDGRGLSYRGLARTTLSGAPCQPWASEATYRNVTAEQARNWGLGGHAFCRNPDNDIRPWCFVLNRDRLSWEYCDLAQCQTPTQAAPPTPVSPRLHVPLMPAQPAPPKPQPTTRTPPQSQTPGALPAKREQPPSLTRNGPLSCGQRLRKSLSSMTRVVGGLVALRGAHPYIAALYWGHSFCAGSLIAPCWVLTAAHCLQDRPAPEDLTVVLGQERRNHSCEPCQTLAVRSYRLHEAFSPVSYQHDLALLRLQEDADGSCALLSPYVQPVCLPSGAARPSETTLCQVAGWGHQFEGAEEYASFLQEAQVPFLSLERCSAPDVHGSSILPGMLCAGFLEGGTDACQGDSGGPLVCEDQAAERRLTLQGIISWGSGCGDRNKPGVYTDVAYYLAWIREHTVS

[12] = Luminescence Cell-Based Dose Confirmation HTS to Identify Activators of 5'UTR Stem-Loop Driven Alpha-Synuclein mRNA Translation in H4 Neuroglioblastoma Cells. [Related pubchem assays: 1829 (Project Summary), 1814 (Primary HTS)]; assay type: functional
[13] = Luminescence Cell-Based Dose Response HTS to Identify Activators of Luciferase Translation or Activity in H4 […] Cells. [Related pubchem assays: 1829 (Project Summary), 1814 (Primary HTS)]; assay type: functional
[14] = tested on: H4; test: Luminescence Cell-Based Dose Response HTS to Identify Activators of 5'UTR Stem-Loop Driven Prion Protein mRNA Translation in H4 Neuroglioblastoma Cells. [Related pubchem assays: 1829 (Project Summary), 1814 (Primary HTS)]; assay type: functional; conditions: Homo sapiens
[15] = molecular target: T5, Cytochrome P450 1A2 (Homo sapiens, UniProt P05177);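 also: PubChem cytochrome P450 panel assay, CYP1A2 panel member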
T5 sequence (P05177 whole entry): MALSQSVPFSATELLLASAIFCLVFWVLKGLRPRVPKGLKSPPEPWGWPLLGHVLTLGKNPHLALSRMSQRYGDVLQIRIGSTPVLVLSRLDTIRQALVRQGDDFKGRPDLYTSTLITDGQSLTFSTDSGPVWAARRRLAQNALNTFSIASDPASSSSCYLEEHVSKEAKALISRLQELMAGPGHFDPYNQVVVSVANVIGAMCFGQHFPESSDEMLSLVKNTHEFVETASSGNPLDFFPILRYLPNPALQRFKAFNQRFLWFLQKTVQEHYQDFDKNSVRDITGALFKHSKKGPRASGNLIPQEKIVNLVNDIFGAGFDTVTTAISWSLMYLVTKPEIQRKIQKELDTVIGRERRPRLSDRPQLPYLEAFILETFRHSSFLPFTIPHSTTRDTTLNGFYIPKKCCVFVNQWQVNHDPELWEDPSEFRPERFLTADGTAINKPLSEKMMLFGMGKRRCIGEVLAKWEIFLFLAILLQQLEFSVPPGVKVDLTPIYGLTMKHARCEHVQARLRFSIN

[16] = molecular target: Cytochrome P450 3A4 (Homo sapiens, UniProt P08684);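 also: CYP3A4 tested as one member of a cytochrome P450 panel screen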
[17] = inhibitors of intracellular T. cruzi replication, confirmation, NIH3T3 host cells, beta-gal luminescence (AID 2044); assay type: functional, cell-based;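 also: intracellular parasites grown in NIH/3T3 mouse fibroblasts as host cells; luminescent beta-galactosidase reporter signal from transgenic T. cruzi replicating inside host cells; inhibitors lower the luminescence signal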
[18] = cytotoxicity toward NIH3T3 fibroblasts, dose response, counter-screen, cell-based, ATP luminescence, mouse fibroblasts (AID 2010); assay type: functional;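 also: cells exposed to compound for about 90 hours before reading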
[19] = molecular target: DNA dC->dU-editing enzyme APOBEC-3A (Homo sapiens, UniProt P31941); test: Dose Response confirmation of small molecule APOBEC3A DNA Deaminase Inhibitors via a fluorescence-based single-stranded DNA deaminase assay. [Related pubchem assays (depositor defined):AID493011, AID493024]; assay type: functional
[20] = molecular target: DNA dC->dU-editing enzyme APOBEC-3G (Homo sapiens, UniProt Q9HC16); assay type: functional;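 also: Dose-response counterscreen measuring inhibition of APOBEC3G DNA deaminase activity, run while confirming APOBEC3A inhibitors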
[21] = HEp-2 cell cytotoxicity, dose response, cytotoxicity control for RSV inhibitor project, HTS (AID 2410); assay type: functional; conditions: human respiratory syncytial virus
[22] = growth suppression of PTEN-null colon cells, dose response, cell-based, HCT116 PTEN knockout (AID 1047); assay type: functional;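 also: HCT116 colon tumor cells with PTEN knocked out; cells exposed to compound for 60 hours before readout; potency for loss of cell viability measured by luminescence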
[23] = growth suppression of beta-catenin-knockout colon cells, dose response, cell-based, HCT116, human colon tumor (AID 1045); assay type: functional;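 also: HCT116 colon tumor cells with beta catenin knocked out; cells exposed to compound for 60 hours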
[24] = molecular target: T6, Ubiquitin-conjugating enzyme E2 N (Homo sapiens, UniProt P61088); assay type: functional;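 also: Dose-response confirmation in a TR-FRET assay detecting UBC13-driven polyubiquitin chain formation, inhibition measured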
T6 sequence (P61088 whole entry): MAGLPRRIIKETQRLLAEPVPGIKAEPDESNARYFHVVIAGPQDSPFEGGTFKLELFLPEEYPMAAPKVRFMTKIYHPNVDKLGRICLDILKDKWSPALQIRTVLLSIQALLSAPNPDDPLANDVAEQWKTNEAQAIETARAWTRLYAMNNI

Chain of Cytochrome P450 3A4 (P08684 whole entry): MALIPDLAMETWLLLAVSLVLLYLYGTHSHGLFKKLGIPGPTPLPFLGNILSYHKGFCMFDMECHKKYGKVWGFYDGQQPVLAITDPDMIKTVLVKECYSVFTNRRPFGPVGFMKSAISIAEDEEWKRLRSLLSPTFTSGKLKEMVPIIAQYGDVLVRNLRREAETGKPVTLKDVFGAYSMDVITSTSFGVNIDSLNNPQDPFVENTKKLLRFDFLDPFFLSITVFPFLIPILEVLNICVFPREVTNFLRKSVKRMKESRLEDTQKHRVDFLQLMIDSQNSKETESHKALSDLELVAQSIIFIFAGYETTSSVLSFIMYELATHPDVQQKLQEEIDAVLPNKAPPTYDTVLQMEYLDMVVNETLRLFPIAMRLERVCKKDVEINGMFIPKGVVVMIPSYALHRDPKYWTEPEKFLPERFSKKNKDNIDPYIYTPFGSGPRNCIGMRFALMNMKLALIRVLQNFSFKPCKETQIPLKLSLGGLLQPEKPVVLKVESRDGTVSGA
Chain of Nonstructural protein 1 (Q194T2 whole entry): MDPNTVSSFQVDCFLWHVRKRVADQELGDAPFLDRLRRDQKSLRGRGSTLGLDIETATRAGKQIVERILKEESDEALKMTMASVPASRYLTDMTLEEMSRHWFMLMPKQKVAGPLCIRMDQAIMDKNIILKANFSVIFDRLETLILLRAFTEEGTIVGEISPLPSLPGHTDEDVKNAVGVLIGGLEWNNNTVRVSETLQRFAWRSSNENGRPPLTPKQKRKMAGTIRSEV
Chain of DNA dC->dU-editing enzyme APOBEC-3A (P31941 whole entry): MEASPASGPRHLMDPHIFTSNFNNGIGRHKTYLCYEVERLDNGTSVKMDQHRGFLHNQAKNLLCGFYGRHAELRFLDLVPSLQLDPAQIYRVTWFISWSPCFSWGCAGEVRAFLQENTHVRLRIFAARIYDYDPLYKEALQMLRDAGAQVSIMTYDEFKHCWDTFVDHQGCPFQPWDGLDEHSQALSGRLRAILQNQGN
Chain of DNA dC->dU-editing enzyme APOBEC-3G (Q9HC16 whole entry): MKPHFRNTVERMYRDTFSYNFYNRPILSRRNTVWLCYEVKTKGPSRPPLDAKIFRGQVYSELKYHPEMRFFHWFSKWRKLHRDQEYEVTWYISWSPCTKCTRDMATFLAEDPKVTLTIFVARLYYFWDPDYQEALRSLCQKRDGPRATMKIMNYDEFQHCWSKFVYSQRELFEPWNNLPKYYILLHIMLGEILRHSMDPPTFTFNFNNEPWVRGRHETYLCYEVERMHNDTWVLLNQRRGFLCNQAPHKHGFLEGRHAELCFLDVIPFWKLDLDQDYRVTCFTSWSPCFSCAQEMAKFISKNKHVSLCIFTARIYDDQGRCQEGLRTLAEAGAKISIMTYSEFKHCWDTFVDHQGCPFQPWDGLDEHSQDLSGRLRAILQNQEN
Chain of Induced myeloid leukemia cell differentiation protein Mcl-1 (Q07820 whole entry): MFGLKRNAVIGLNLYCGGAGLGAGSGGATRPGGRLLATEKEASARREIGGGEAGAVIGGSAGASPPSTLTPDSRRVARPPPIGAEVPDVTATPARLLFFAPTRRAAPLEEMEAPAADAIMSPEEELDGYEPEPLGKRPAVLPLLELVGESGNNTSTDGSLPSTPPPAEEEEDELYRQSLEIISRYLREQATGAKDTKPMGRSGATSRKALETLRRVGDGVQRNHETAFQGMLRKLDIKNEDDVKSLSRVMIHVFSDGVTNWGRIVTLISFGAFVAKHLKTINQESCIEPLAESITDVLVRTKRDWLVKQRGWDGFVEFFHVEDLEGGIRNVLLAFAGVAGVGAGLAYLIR

c1cncc(C2Nc3cccc4cccc(c34)N2)c1
IC50 [1]: 9.59 µM (active)
IC50 [2]: > 100 µM (active)

Cc1ccc(C)c(NC(=O)CSc2n[nH]c(-c3ccccn3)n2)c1
IC50 [2]: 5.46 µM (active)
AC50 [3]: 163 µM (active)
EC50 [4]: > 380 µM (inactive)

COc1ccccc1OCCN1CSC(=S)N(C)C1
CC50 [5]: 7.54 µM (active)
CC50 [6]: 6.71 µM (active)
AC50 [7]: 2.4 µM (active)
CC50 [8]: 5.83 µM (active)
AC50 [9]: 12.2 µM (active)
IC50 [10]: 6.69 µM (active)

Nc1n[nH]c(SCn2nnc3ccccc3c2=O)n1
IC50 [11]: > 50 µM (inactive)

NNC(=O)c1ccc(CSc2nc3ccccc3s2)cc1
IC50 [11]: > 50 µM (inactive)

CCc1nnc(NC(=O)c2cc(-c3ccccc3)nn2-c2ccccc2)s1
EC50 [12]: > 120 µM (not active)
EC50 [13]: 7.74 µM (active)
EC50 [14]: > 120 µM (not active)
AC50 [15]: 15.8 µM (inconclusive)
AC50 [16]: inconclusive

Cc1ccc(C(=O)C(=O)c2ccc(C)c(N)c2)cc1N
IC50 [11]: 15.7 µM (active)

CC(=O)N1CCC2(CC1)CN(C(c1ccccc1)c1ccccc1)C2
AC50 [16]: inconclusive

COc1ccc(CNC(=O)C2CSC(=O)C2)cc1 (stereo unspecified)
EC50 [17]: > 30 µM (not active)
EC50 [18]: 10.3 µM (active)
AC50 [16]: inconclusive

CC1CCCC(C2(O)C(=O)Nc3ccccc32)C1=O (stereo unspecified)
IC50 [19]: 5.46 µM (active)
IC50 [20]: 5.64 µM (active)

CCCN(C/C=C\I)[C@@H]1CCc2cccc(O)c2C1
AC50 [16]: inconclusive

CCN1C(NCCOC)=N[C@@H](c2cccc(C(F)(F)F)c2)C(C(=O)OC)=C1C
IC50 [19]: 2.09 µM (active)
IC50 [20]: 1.95 µM (active)

CCCCCCCSc1cc(OC)c(CCN(C)C)cc1OC
CC50 [21]: 21.3 µM (active)
EC50 [22]: 9.16 µM (active)
EC50 [23]: 7.83 µM (active)
IC50 [24]: > 20 µM (inactive)
IC50 [2]: 44.4 µM (active)

COc1ccc(/C=C2/SC(=S)N(n3c(C)ccc3C)C2=O)cc1
IC50 [11]: > 50 µM (inactive)

O=C(NC(=S)N1CCN(Cc2ccc3c(c2)OCO3)CC1)c1ccc(Cl)cc1
CC50 [8]: 19.2 µM (active)
IC50 [10]: 18.1 µM (active)
